# From US11297838B2, “Pesticidal compositions and methods” (CORTEVA AGRISCIENCE LLC, priority 2018, dated 2022)
# Like-named read-outs stand apart in the source and are kept apart here.
# What was measured:
# [1] = tested on: Cabbage Looper (Trichloplusia ni, TRIPNI); experiment: Insecticidal test for cabbage looper (CL), 128-well diet tray assay; format: in vivo; conditions: Trichoplusia ni, 168 h, read-out: CL rating, % Control (or Mortality)
# Description: Insecticidal Test for Cabbage Looper (Trichloplusia ni, TRIPNI) (“CL”)
# Bioassays on cabbage looper (CL; Trichloplusia ni: Lepidoptera) are conducted using a 128-well diet tray assay. One to five second instar CL larvae are placed in each well (3 mL) of the diet tray that had been previously filled with 1 mL of artificial diet to which 50 μg/cm^2 of the test compound (dissolved in 50 μL of 90:10 acetone-water mixture) had been applied (to each of eight wells) and then allowed to dry. Trays are covered with a clear self-adhesive cover, vented to allow gas exchange, and held at 25° C., 14:10 light-dark for five to seven days. Percent mortality is recorded for the larvae in each well; activity in the eight wells is then averaged. In the reporting of the results, the “BAW & CL Rating Table” was used.
# [2] = tested on: Beet Armyworm (Spodoptera exigua, LAPHEG); experiment: Insecticidal test for beet armyworm (BAW), 128-well diet tray assay; format: in vivo; conditions: 168 h, read-out: BAW rating, % Control (or Mortality)
# Description: Insecticidal Test for Beet Armyworm (Spodoptera exigua, LAPHEG) (“BAW”)
# Bioassays on beet armyworm (BAW; Spodoptera exigua: Lepidoptera) are conducted using a 128-well diet tray assay. One to five second instar BAW larvae are placed in each well (3 mL) of the diet tray that had been previously filled with 1 mL of artificial diet to which 50 μg/cm^2 of the test compound (dissolved in 50 μL of 90:10 acetone-water mixture) had been applied (to each of eight wells) and then allowed to dry. Trays are covered with a clear self-adhesive cover, vented to allow gas exchange, and held at 25° C., 14:10 light-dark for five to seven days. Percent mortality is recorded for the larvae in each well; activity in the eight wells is then averaged. In the reporting of the results, the “BAW & CL Rating Table” was used.
# [3] = 50 μg/cm^2 on artificial diet, second instar larvae, five to seven days, 25° C.
SMILES,"mortality at 50 µg/cm2 [1, 3] [%]","mortality at 50 µg/cm2 [2, 3] [%]",mortality at 50 µg/cm2 [1] [%],mortality at 50 µg/cm2 [2] [%]
"COc1ccc(N2C(=O)CS/C2=N\C(=O)OCC(F)c2ccc(-c3ncn(-c4ccc(OC(F)(F)F)cc4)n3)cc2)c(C)c1 (stereo not drawn) [A37, 2-Fluoro-2-(4-(1-(4-(trifluoromethoxy)phenyl)-1H-1,2,4-triazol-3-yl)phenyl)ethyl (Z)-(3-(4-methoxy-2-methylphenyl)-4-oxothiazolidin-2-ylidene)carbamate]",50 to 100,0,,
"O=C(/N=C1\SCC(=O)N1c1cccc2c1CCCC2)OCCc1ccc(-c2ncn(-c3ccc(OC(F)(F)F)cc3)n2)cc1 [A33, 4-(1-(4-(Trifluoromethoxy)phenyl)-1H-1,2,4-triazol-3-yl)phenethyl (Z)-(4-oxo-3-(5,6,7,8-tetrahydronaphthalen-1-yl)thiazolidin-2-ylidene)carbamate]",50 to 100,0,,
"O=C(/N=C1\SCC(=O)N1c1cccc2c1CCCC2)OCC(F)c1ccc(-c2ncn(-c3ccc(OC(F)(F)F)cc3)n2)cc1 (stereo not drawn) [A39, 2-Fluoro-2-(4-(1-(4-(trifluoromethoxy)phenyl)-1H-1,2,4-triazol-3-yl)phenyl)ethyl (Z)-(4-oxo-3-(5,6,7,8-tetrahydronaphthalen-1-yl)thiazolidin-2-ylidene)carbamate]",50 to 100,50 to 100,,
"CCC(C)Oc1ccc(C)cc1N1C(=O)CS/C1=N\C(=O)OC(C)Cc1ccc(-c2ncn(-c3ccc(OC(F)(F)F)cc3)n2)cc1 (stereo not drawn) [A49, 1-(4-(1-(4-(Trifluoromethoxy)phenyl)-1H-1,2,4-triazol-3-yl)phenyl)propan-2-yl (Z)-(3-(2-(sec-butoxy)-5-methylphenyl)-4-oxothiazolidin-2-ylidene)carbamate]",50 to 100,50 to 100,,
"Cc1ccc(C(C)C)c(-n2ccs/c2=N\C(=O)OC(C)Cc2ccc(-c3ncn(-c4ccc(OC(F)(F)F)cc4)n3)cc2)c1 (stereo not drawn) [A55, 1-(4-(1-(4-(Trifluoromethoxy)phenyl)-1H-1,2,4-triazol-3-yl)phenyl)propan-2-yl (Z)-(3-(2-isopropyl-5-methylphenyl)thiazol-2(3H)-ylidene)carbamate]",50 to 100,50 to 100,,
"Cc1ccc(C(C)C)c(-n2ccs/c2=N\C(=O)OCC(F)c2ccc(-c3ncn(-c4ccc(OC(F)(F)F)cc4)n3)cc2)c1 (stereo not drawn) [A54, 2-Fluoro-2-(4-(1-(4-(trifluoromethoxy)phenyl)-1H-1,2,4-triazol-3-yl)phenyl)ethyl (Z)-(3-(2-isopropyl-5-methylphenyl)thiazol-2(3H)-ylidene)carbamate]",50 to 100,50 to 100,,
"Cc1ccc(C(C)C)c(-n2ccs/c2=N\C(=O)OCCc2ccc(-c3ncn(-c4ccc(OC(F)(F)F)cc4)n3)cc2)c1 [A53, 4-(1-(4-(Trifluoromethoxy)phenyl)-1H-1,2,4-triazol-3-yl)phenethyl (Z)-(3-(2-isopropyl-5-methylphenyl)thiazol-2(3H)-ylidene)carbamate]",50 to 100,50 to 100,,
"CCC(C)c1ccc(OC)cc1N1C(=O)CS/C1=N\C(=O)OCCc1ccc(-c2ncn(-c3ccc(OC(F)(F)F)cc3)n2)cc1 (stereo not drawn) [A28, 4-(1-(4-(Trifluoromethoxy)phenyl)-1H-1,2,4-triazol-3-yl)phenethyl (Z)-(3-(2-(sec-butyl)-5-methoxyphenyl)-4-oxothiazolidin-2-ylidene)carbamate]",50 to 100,50 to 100,,
"CCc1cccc(C)c1N1C(=O)CS/C1=N\C(=O)OCCc1ccc(-c2ncn(-c3ccc(OC(F)(F)F)cc3)n2)cc1 [A32, 4-(1-(4-(Trifluoromethoxy)phenyl)-1H-1,2,4-triazol-3-yl)phenethyl (Z)-(3-(2-ethyl-6-methylphenyl)-4-oxothiazolidin-2-ylidene)carbamate]",50 to 100,0,,
"Cc1ccc(C(C)C)c(N2C(=O)CS/C2=N\C(=O)OCCc2ccc(-c3ncn(-c4ccc(OC(F)(F)C(F)(F)F)cc4)n3)cc2)c1 [A44, 4-(1-(4-(Perfluoroethoxy)phenyl)-1H-1,2,4-triazol-3-yl)phenethyl (Z)-(3-(2-isopropyl-5-methylphenyl)-4-oxothiazolidin-2-ylidene)carbamate]",50 to 100,50 to 100,,
"CC(Cc1ccc(-c2ncn(-c3ccc(OC(F)(F)F)cc3)n2)cc1)OC(=O)/N=C1\SCC(=O)N1c1ccccc1C(C)C (stereo not drawn) [A50, 1-(4-(1-(4-(Trifluoromethoxy)phenyl)-1H-1,2,4-triazol-3-yl)phenyl)propan-2-yl (Z)-(3-(2-isopropylphenyl)-4-oxothiazolidin-2-ylidene)carbamate]",50 to 100,50 to 100,,
"Cc1ccc(C(C)C)c(N2C(=O)CS/C2=N\C(=O)OCCc2ccc(-c3ncn(-c4ccc(OC(F)(F)F)cc4)n3)cc2)c1 [A1, 4-(1-(4-(trifluoromethoxy)phenyl)-1H-1,2,4-triazol-3-yl)phenethyl (Z)-(3-(2-isopropyl-5-methylphenyl)-4-oxothiazolidin-2-ylidene)carbamate]",50 to 100,50 to 100,,
"CCOc1ccccc1N1C(=O)CS/C1=N\C(=O)OC(C)Cc1ccc(-c2ncn(-c3ccc(OC(F)(F)F)cc3)n2)cc1 (stereo not drawn) [A51, 1-(4-(1-(4-(Trifluoromethoxy)phenyl)-1H-1,2,4-triazol-3-yl)phenyl)propan-2-yl (Z)-(3-(2-ethoxyphenyl)-4-oxothiazolidin-2-ylidene)carbamate]",50 to 100,50 to 100,,
"O=C(/N=C1\SCC(=O)N1c1cc(Cl)ccc1OCC(F)(F)F)OCC(F)c1ccc(-c2ncn(-c3ccc(OC(F)(F)F)cc3)n2)cc1 (stereo not drawn) [A22, 2-Fluoro-2-(4-(1-(4-(trifluoromethoxy)phenyl)-1H-1,2,4-triazol-3-yl)phenyl)ethyl (Z)-(3-(5-chloro-2-(2,2,2-trifluoroethoxy)phenyl)-4-oxothiazolidin-2-ylidene)carbamate]",50 to 100,50 to 100,,
"CC(C)c1ccccc1N1C(=O)CS/C1=N\C(=O)OCC(Cl)c1ccc(-c2ncn(-c3ccc(OC(F)(F)F)cc3)n2)cc1 (stereo not drawn) [A47, 2-Chloro-2-(4-(1-(4-(trifluoromethoxy)phenyl)-1H-1,2,4-triazol-3-yl)phenyl)ethyl (Z)-(3-(2-isopropylphenyl)-4-oxothiazolidin-2-ylidene)carbamate]",50 to 100,50 to 100,,
"CC(C)c1ccccc1N1C(=O)CS/C1=N\C(=O)OCC(F)c1ccc(-c2ncn(-c3ccc(OC(F)(F)F)cc3)n2)cc1 (stereo not drawn) [A34, 2-Fluoro-2-(4-(1-(4-(trifluoromethoxy)phenyl)-1H-1,2,4-triazol-3-yl)phenyl)ethyl (Z)-(3-(2-isopropylphenyl)-4-oxothiazolidin-2-ylidene)carbamate]",50 to 100,50 to 100,,
"Cc1ccc(C(C)C)c(N2C(=O)CS/C2=N\C(=O)Oc2ccc(-c3ncn(-c4ccc(OC(F)(F)F)cc4)n3)cc2)c1 [A3, 4-(1-(4-(Trifluoromethoxy)phenyl)-1H-1,2,4-triazol-3-yl)phenyl (Z)-(3-(2-isopropyl-5-methylphenyl)-4-oxothiazolidin-2-ylidene)carbamate]",,,0,0
"Cc1cc(Cl)c(N2C(=O)CS/C2=N\C(=O)OCC(F)c2ccc(-c3ncn(-c4ccc(OC(F)(F)F)cc4)n3)cc2)cc1C (stereo not drawn) [A38, 2-Fluoro-2-(4-(1-(4-(trifluoromethoxy)phenyl)-1H-1,2,4-triazol-3-yl)phenyl)ethyl (Z)-(3-(2-chloro-4,5-dimethylphenyl)-4-oxothiazolidin-2-ylidene)carbamate]",50 to 100,0,,
"Cc1ccc(OCC(F)(F)F)c(N2C(=O)CS/C2=N\C(=O)OCC(F)c2ccc(-c3ncn(-c4ccc(OC(F)(F)F)cc4)n3)cc2)c1 (stereo not drawn) [A21, 2-Fluoro-2-(4-(1-(4-(trifluoromethoxy)phenyl)-1H-1,2,4-triazol-3-yl)phenyl)ethyl (Z)-(3-(5-methyl-2-(2,2,2-trifluoroethoxy)phenyl)-4-oxothiazolidin-2-ylidene)carbamate]",50 to 100,50 to 100,,
"CCC(C)Oc1ccc(C)cc1N1C(=O)CS/C1=N\C(=O)OCC(F)c1ccc(-c2ncn(-c3ccc(OC(F)(F)F)cc3)n2)cc1 (stereo not drawn) [A41, 2-Fluoro-2-(4-(1-(4-(trifluoromethoxy)phenyl)-1H-1,2,4-triazol-3-yl)phenyl)ethyl (Z)-(3-(2-(sec-butoxy)-5-methylphenyl)-4-oxothiazolidin-2-ylidene)carbamate]",50 to 100,50 to 100,,
"CC(C)c1ccc(Cl)cc1N1C(=O)CS/C1=N\C(=O)OCC(Cl)c1ccc(-c2ncn(-c3ccc(OC(F)(F)F)cc3)n2)cc1 (stereo not drawn) [A48, 2-Chloro-2-(4-(1-(4-(trifluoromethoxy)phenyl)-1H-1,2,4-triazol-3-yl)phenyl)ethyl (Z)-(3-(5-chloro-2-isopropylphenyl)-4-oxothiazolidin-2-ylidene)carbamate]",50 to 100,50 to 100,,
